Tested on: ligand-dependent transcription factors (AhR, ER, and AR)
Assay: Reporter gene (luciferase) assay in Neuro2a cells carrying PGV-THp03 (SEQ ID No: 2)
Format: cell-based, mouse
Conditions: 10 nM, 30 hours, PGV-THp03, AhR-introduced Neuro2a
Experimental: A vector (PGV-THp03) containing the upstream region (SEQ ID No: 2) ranging from about −300 to 0 position of the TH gene-coding region, which was prepared in Example 4, was used. Neuro2a was used as the cell.
Two kinds of vectors, pcDNA4-rAhR (Example 1) and pcDNA4/V5-His/lacZ (Invitrogen), were introduced into Neuro2a, together with PGV-THp03. pcDNA4-rAhR was introduced for constitutive expression of the SD-line rat AhR gene (SEQ ID No: 10) in the cell, and pcDNA4/V5-His/lacZ was introduced for normalization of the vector transfection efficiency.
The vectors were introduced into the cell by using LIPOFECTAMINE 2000 (Invitrogen). The cell was cultured on a 24-well plate, and the operation was performed according to the manual of Invitrogen. A total of […] of vectors (0.4 μg of PGV-THp03, 0.2 μg of pcDNA4-rAhR, and 0.2 μg of pcDNA4/V5-His/lacZ) suspended in 50 μl of OPTI-MEM medium and 2 μl of LIPOFECTAMINE 2000 suspended in 50 μl of OPTI-MEM medium were mixed, and incubated at room temperature for 20 minutes to form nucleic acid/LIPOFECTAMINE 2000 complex. The obtained suspension containing the complex was added to Neuro2a cell culture, which has been previously cultured overnight in 500 μl of DF1:1 medium (containing 10% fetal calf serum) (0.8×10^5 cells were seeded on previous day), to allow incorporation of the vectors into the cell. The cell was cultured additionally for 24 hours after transfection, for the purpose of improvement in vector incorporation efficiency and expression of the protein derived from the introduced vectors.
As the test substances, vinclozolin (10 μM), dimethyl phthalate (10 μM), benzopyrene (1 μM), and dioxin (TCDD) (10 nM) were used. After the transfection and the additional incubation for 24 hours, the medium was replaced with a fresh medium containing any one of the test substances, and the cell was cultured additionally for 30 hours. After 30 hours, the medium was removed from the 24-well plate, and the cell was washed with phosphate buffer twice. 100 μl of a protein extraction solution (manufactured by TOYO B-NET) was added to each well, and the cell suspension was stirred gently at room temperature for 15 minutes and then frozen at −80° C. The frozen solution was thawed at room temperature, and the resulting solution was recovered in a tube and diluted ten times with a protein extraction reagent containing 1 mg/ml bovine serum albumin luciferase and β-galactosidase activities in the diluted solution were measured, and the expression amount of the reporter gene was calculated as a relative luminescence intensity per 1 ng of β-galactosidase per second (RLU/sec/ng β-galactosidase).

`Clc1cc2c(cc1Cl)Oc1cc(Cl)c(Cl)cc1O2` [TCDD, 2,3,7,8-tetrachlorodibenzo-p-dioxine] was tested. Which luciferase activity increase did it give?
The luciferase activity increase was “approximately 1.4 times”.
